Test results as given in patent US20100331297A1, “MODULATION OF PROTEIN TRAFFICKING” (FOLDRX PHARMACEUTICALS, INC., priority 2007, published 2010).

Experiments:
[1] = target: T1, ΔF508 CFTR (Homo sapiens, UniProt P13569, DEL508-508); test: Corrector activity, YFP halide (iodide) quenching assay in FRT cells expressing ΔF508 CFTR; format: cell-based; parameters: expressed in transfected cells; host or cells: Fischer rat thyroid (FRT) cells; details: FRT cells ΔF508 CFTR/YFP, 24 hours with compound at 37° C., forskolin and genistein; read-out: Corrector EC50
How it was run: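 FRT cells co-expressing ΔF508 CFTR and halide-sensitive YFP were incubated 24 h at 37° C with compounds, then stimulated 30 min at 37° C in PBS with forskolin and genistein. Endpoint fluorescence after iodide injection was normalized to initial reading; EC50 from 4-parameter fit with bottom constrained to DMSO control.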

[2] = target: T1, ΔF508 CFTR; test: Potentiator activity, YFP halide (iodide) quenching assay in FRT cells expressing ΔF508 CFTR, 27° C. pre-incubation; format: cell-based; parameters: expressed in transfected cells; host or cells: Fischer rat thyroid (FRT) cells; Potentiator activity compared to the DMSO control (no EC50 obtained): scale not given here; details: for EC50: FRT cells ΔF508 CFTR/YFP, 24 hours at 27° C., compound with forskolin 30 min
Method: Fisher rat thyroid (FRT) cells stably expressing ΔF508 CFTR and a halide-sensitive variant of yellow fluorescent protein (YFP) were seeded into microtiter plates and allowed to grow for 24 hours at 37° C. and 5% CO2, as described above. The medium was replaced with fresh medium and the cells were incubated for a further 24 hours at 27° C. and 5% CO2 to increase the level of mutant CFTR at the cell surface.
Compounds in DMSO solution were pre-diluted into phosphate-buffered saline solution (PBS) containing forskolin. Activity of CFTR was assayed by removing the medium, washing the cell monolayer with PBS, and then applying the compounds diluted in PBS containing forskolin. After 30 min of incubation at 37° C., the plates were placed in a fluorescence plate reader equipped with a reagent injector. After measuring an initial fluorescence value, iodide-containing buffer was injected and the decrease in fluorescence was followed at excitation and emission wavelengths of 485 and 530 nm, respectively.
Potentiator activity was calculated as follows. Normalized endpoint fluorescence was calculated by dividing the endpoint fluorescence after iodide injection by the initial fluorescence reading and multiplication by 100. Potentiator EC50 values were calculated by the same method as corrector EC50 values.

T1 sequence (P13569 with tags, fused parts or gaps DEL508-508): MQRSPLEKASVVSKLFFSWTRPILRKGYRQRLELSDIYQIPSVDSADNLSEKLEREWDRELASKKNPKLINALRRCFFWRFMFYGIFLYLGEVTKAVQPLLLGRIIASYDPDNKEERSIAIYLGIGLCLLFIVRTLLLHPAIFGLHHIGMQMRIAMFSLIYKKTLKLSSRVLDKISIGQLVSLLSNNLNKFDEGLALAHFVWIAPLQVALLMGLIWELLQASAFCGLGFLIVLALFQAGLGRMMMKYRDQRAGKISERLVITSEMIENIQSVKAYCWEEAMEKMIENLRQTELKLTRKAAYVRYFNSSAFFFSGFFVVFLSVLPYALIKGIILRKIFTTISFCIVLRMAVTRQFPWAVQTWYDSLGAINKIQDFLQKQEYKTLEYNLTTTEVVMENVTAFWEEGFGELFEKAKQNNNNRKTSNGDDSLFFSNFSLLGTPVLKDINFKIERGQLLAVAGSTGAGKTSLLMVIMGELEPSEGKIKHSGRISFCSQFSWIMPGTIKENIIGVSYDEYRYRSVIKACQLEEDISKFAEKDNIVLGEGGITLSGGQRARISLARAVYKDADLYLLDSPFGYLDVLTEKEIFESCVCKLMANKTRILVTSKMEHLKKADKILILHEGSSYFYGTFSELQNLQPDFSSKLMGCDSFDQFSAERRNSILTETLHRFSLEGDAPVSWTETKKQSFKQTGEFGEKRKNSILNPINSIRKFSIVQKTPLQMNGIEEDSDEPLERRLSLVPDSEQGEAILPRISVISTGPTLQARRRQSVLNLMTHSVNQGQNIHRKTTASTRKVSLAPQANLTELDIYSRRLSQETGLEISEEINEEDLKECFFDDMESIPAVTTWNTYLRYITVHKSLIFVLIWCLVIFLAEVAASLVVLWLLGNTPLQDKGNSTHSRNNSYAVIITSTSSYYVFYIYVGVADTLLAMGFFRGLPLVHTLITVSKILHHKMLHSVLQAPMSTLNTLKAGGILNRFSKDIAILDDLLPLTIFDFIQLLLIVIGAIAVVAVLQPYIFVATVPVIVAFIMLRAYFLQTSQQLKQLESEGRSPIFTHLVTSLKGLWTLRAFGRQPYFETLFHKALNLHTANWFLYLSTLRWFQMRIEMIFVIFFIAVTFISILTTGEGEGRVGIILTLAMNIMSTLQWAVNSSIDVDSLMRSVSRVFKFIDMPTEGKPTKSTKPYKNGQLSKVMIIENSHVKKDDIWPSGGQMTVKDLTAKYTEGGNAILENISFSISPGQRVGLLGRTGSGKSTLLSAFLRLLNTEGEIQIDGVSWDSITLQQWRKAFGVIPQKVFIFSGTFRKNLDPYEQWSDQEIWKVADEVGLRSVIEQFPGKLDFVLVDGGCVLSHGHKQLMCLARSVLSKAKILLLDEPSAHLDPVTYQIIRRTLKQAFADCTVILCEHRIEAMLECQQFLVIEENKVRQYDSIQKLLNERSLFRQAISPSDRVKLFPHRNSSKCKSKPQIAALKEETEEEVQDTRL

SMILES	EC50 [1] [µM]	Potentiator activity compared to the DMSO control (no EC50 obtained) ([2]; at 12 μm)	EC50 [2] [µM]
CC(C)(C)n1nc(Oc2cccc3ccccc23)c2c(N)ncnc21 [compound 198, 1-tert-Butyl-3-(naphthalen-1-yloxy)-1H-pyrazolo[3,4-d]pyrimidin-4-ylamine]	> 15	# (at 12 μm)	–
CC(C)(C)n1nc(Oc2cccc(F)c2)c2c(N)ncnc21 [compound 200]	> 15	–	< 2
CC(C)(C)n1nc(Oc2cccc(C#N)c2)c2c(N)ncnc21 [compound 201]	5 to 10	–	5 to 10
CC(C)(C)n1nc(Oc2ccc(C#N)cc2)c2c(N)ncnc21 [compound 205]	> 15	–	< 2
Cc1ccc(F)c(Oc2nn(C(C)(C)C)c3ncnc(N)c23)c1 [compound 206]	> 15	–	> 15
CCn1nc(Sc2cccc3ccccc23)c2c(N)ncnc21 [compound 207]	> 15	–	< 2
CCn1nc(Sc2ccc(F)cc2)c2c(N)ncnc21 [compound 208]	> 15	–	< 2
CC(C)(C)n1nc(Oc2cccc3c2CCCC3)c2c(N)ncnc21 [compound 209]	> 15	–	> 15
CC(C)(C)n1nc(Oc2ccc3c(c2)CCC3)c2c(N)ncnc21 [compound 210]	5 to 10	–	< 2
CCn1nc(S(=O)(=O)c2cccc3ccccc23)c2c(N)ncnc21 [compound 212]	> 15	–	> 15
CCn1nc(Sc2ccccc2F)c2c(N)ncnc21 [compound 217]	> 15	–	> 15
CCn1nc(Sc2cccc(C)c2)c2c(N)ncnc21 [compound 218]	5 to 10	–	< 2
CCn1nc([S+]([O-])c2cccc(C)c2)c2c(N)ncnc21 (stereo not drawn) [compound 224]	> 15	–	> 15
CCn1nc(Sc2cccc(Cl)c2)c2c(N)ncnc21 [compound 226]	> 15	–	< 2
CCn1nc(Sc2ccccc2Cl)c2c(N)ncnc21 [compound 227]	> 15	–	> 15
CC(C)(C)n1nc(Oc2ccc(OCc3ccccc3)cc2)c2c(N)ncnc21 [compound 233]	> 15	–	> 15
CCn1nc(Sc2cccc(Br)c2)c2c(N)ncnc21 [compound 236]	> 15	–	< 2
CC(C)(C)n1nc(Oc2ccc(C(=O)c3ccccc3)cc2)c2c(N)ncnc21 [compound 237]	> 15	–	> 15
CCn1nc([S+]([O-])c2cccc(F)c2)c2c(N)ncnc21 (stereo not drawn) [compound 238]	> 15	–	> 15
CCn1nc([S+]([O-])c2cccc3ccccc23)c2c(N)ncnc21 (stereo not drawn) [compound 241]	> 15	–	> 15

SMILES	EC50 [1] [µM]	Potentiator activity compared to the DMSO control (no EC50 obtained) ([2]; at 12 μm)	EC50 [2] [µM]
CC(C)(C)n1nc(Sc2cccc(C(F)(F)F)c2)c2c(N)ncnc21 [compound 244, 1-tert-Butyl-3-(3-trifluoromethyl-phenylsulfanyl)-1H-pyrazolo[3,4-d]pyrimidin-4-ylamine]	> 15	–	5 to 10
CC(C)(C)n1nc(Sc2ccccn2)c2c(N)ncnc21 [compound 245]	> 15	–	5 to 10
Nc1ncnc2c1c(-c1ccc(Cl)cc1)nn2C1CCCC1 [compound 247]	2 to 5	–	2 to 5
Nc1ncnc2c1c(Oc1cccc(Cl)c1)nn2CC(F)F [compound 263]	> 15	–	> 15
CCn1nc(Sc2cc(F)cc(F)c2)c2c(N)ncnc21 [compound 264]	> 15	–	2 to 5
CCn1cc(-c2ccc(Cl)cc2)c2c(NC(=O)c3ccccc3)ncnc21 [compound 272]	< 2	–	> 15
CCn1nc([S+]([O-])c2cccc(Cl)c2)c2c(N)ncnc21 (stereo not drawn) [compound 279]	> 15	–	> 15
CCn1nc(Sc2cccc(OC)c2)c2c(N)ncnc21 [compound 280]	> 15	–	> 15
CCn1nc(Sc2cccc(OC(F)(F)F)c2)c2c(N)ncnc21 [compound 281]	> 15	–	> 15
CCn1nc([S+]([O-])c2cc(F)cc(F)c2)c2c(N)ncnc21 (stereo not drawn) [compound 283]	> 15	–	> 15
CCn1nc([S+]([O-])c2cccc(C(F)(F)F)c2)c2c(N)ncnc21 (stereo not drawn) [compound 284]	> 15	–	> 15
CCn1nc([S+]([O-])c2cccc(O)c2)c2c(N)ncnc21 (stereo not drawn) [compound 285]	> 15	–	> 15
CCn1nc(Nc2cccc(Cl)c2)c2c(N)ncnc21 [compound 286]	> 15	–	> 15
Nc1ncnc2c1c(Oc1cccc(Cl)c1)nn2-c1ncccn1 [compound 287]	> 15	–	> 15
CCn1nc([S+]([O-])c2ccc(C)cc2)c2c(N)ncnc21 (stereo not drawn) [compound 291]	> 15	–	> 15
CCn1nc([S+]([O-])c2ccc(F)cc2F)c2c(N)ncnc21 (stereo not drawn) [compound 292]	> 15	–	> 15
O=[N+]([O-])c1ccc(Nc2ncnc3[nH]nc(-c4ccc(Cl)cc4)c23)nc1 [compound 293]	> 15	–	> 15
CCn1cc(-c2ccc(Cl)cc2)c2c(NC(=O)c3ccc(C)cc3)ncnc21 [compound 298]	< 2	–	> 15
CCn1cc(-c2ccc(Cl)cc2)c2c(NC(=O)c3ccc(F)cc3)ncnc21 [compound 299]	< 2	–	> 15

Other lines, results leading:

EC50 [1] [µM]	Potentiator activity compared to the DMSO control (no EC50 obtained) ([2]; at 12 μm)	EC50 [2] [µM]	SMILES
5 to 10	–	> 15	Nc1ncnc2c1c(-c1ccc(Cl)cc1)nn2CC(F)F [compound 202]
> 15	–	< 2	CCn1nc(Sc2ccc(Cl)cc2)c2c(N)ncnc21 [compound 216]
> 15	–	< 2	Nc1ncnc2c1c(Oc1cccc(Cl)c1)nn2C1CCC1 [compound 228]
5 to 10	–	< 2	CCC(=O)Nc1ncnc2c1c(-c1ccc(Cl)cc1)nn2C(C)(C)C [compound 240]
2 to 5	–	5 to 10	CC(C)Cn1nc(-c2ccc(Cl)cc2)c2c(N)ncnc21 [compound 252]
> 15	–	< 2	Nc1ncnc2c1c(Oc1cccc(Cl)c1)nn2CC1CCC1 [compound 256]
< 2	–	< 2	Nc1ncnc2c1c(-c1ccc(Cl)cc1)cn2C1CCC1 [compound 257]
2 to 5	–	2 to 5	Nc1ncnc2c1c(-c1ccc(Cl)cc1)cn2CC1CCC1 [compound 262]
5 to 10	–	< 2	CC(C)C(=O)Nc1ncnc2c1c(-c1ccc(Cl)cc1)nn2C(C)(C)C [compound 265]
5 to 10	–	< 2	CC(C)(C)n1nc(-c2ccc(Cl)cc2)c2c(NC(=O)C3CCCC3)ncnc21 [compound 266]
> 15	–	> 15	CC(C)(C)n1nc(-c2ccc(Cl)cc2)c2c(NC(=O)N3CCOCC3)ncnc21 [compound 268]
> 15	–	> 15	CN(C)C(=O)Nc1ncnc2c1c(-c1ccc(Cl)cc1)nn2C(C)(C)C [compound 269]
> 15	–	> 15	CCOC(=O)N1CC(n2nc(-c3ccc(Cl)cc3)c3c(N)ncnc32)C1 [compound 270]
< 2	–	5 to 10	CCC(=O)Nc1ncnc2c1c(-c1ccc(Cl)cc1)cn2CC [compound 271]
> 15	–	> 15	CC(C)(C)n1nc(-c2ccc(Cl)cc2)c2c(NC(=O)N3CCCCC3)ncnc21 [compound 273]
5 to 10	–	< 2	CC(C)(C)n1nc(-c2ccc(O)cc2Cl)c2c(N)ncnc21 [compound 276]
> 15	–	> 15	Nc1ncnc2c1c(-c1ccc(Cl)cc1)nn2-c1nc2ccccc2o1 [compound 277]
> 15	–	< 2	Nc1ncnc2c1c(Oc1cccc(Cl)c1)nn2CC1CC1 [compound 278]
> 15	–	> 15	CCn1cc(-c2ccc(Cl)cc2)c2c(N(C)C(C)=O)ncnc21 [compound 282]
> 15	–	> 15	Nc1ncnc2c1c(-c1ccc(Cl)cc1)nn2-c1ccc([N+](=O)[O-])cn1 [compound 288]
5 to 10	–	2 to 5	CCC(C)Cn1cc(-c2ccc(Cl)cc2)c2c(N)ncnc21 (stereo not drawn) [compound 289]
< 2	–	2 to 5	Nc1ncnc2c1c(-c1ccc(Cl)cc1)cn2CC(F)F [compound 290]
5 to 10	–	> 15	CC(C)OC(=O)Nc1ncnc2c1c(-c1ccc(Cl)cc1)nn2C(C)(C)C [compound 300]
< 2	–	> 15	CC(=O)N1CCC(n2nc(-c3ccc(Cl)cc3)c3c(N)ncnc32)CC1 [compound 302]
